Each compound was assayed on Botrytis cinerea (assay: Test A: preventive spray on tomato seedlings, Botrytis cinerea (gray mold), visual disease rating). Details: 100 = 100% disease control, 0 = no control relative to controls, unmarked values.
Type: in vivo
Source text: General protocol for preparing test suspensions for Tests A-E: the test compounds were first dissolved in acetone in an amount equal to 3% of the final volume and then suspended at the desired concentration (in ppm) in acetone and purified water (50/50 mix by volume) containing 250 ppm of the surfactant Trem® 014 (polyhydric alcohol esters). The resulting test suspensions were then used in Tests A-E. Compounds were sprayed with either a 40 ppm or 10 ppm (*) test suspension to the point of run-off on the test plants which is the equivalent of a rate of 160 g ai/ha or 40 g ai/ha, respectively.
The test suspension was sprayed to the point of run-off on tomato seedlings. The following day the seedlings were inoculated with a spore suspension of Botrytis cinerea (the causal agent of gray mold on many crops) and incubated in a saturated atmosphere at 20° C. for 48 h, and moved to a growth chamber at 27° C. for 2 days, after which time visual disease ratings were made.
Results for Tests A-E are given in Table A. In the Table, a rating of 100 indicates 100% disease control and a rating of 0 indicates no disease control (relative to the controls). A dash (-) indicates no test results.

Row | SMILES | Test A disease control rating
1 | Cc1cnn(-c2ccc(-c3ccccc3NC(=O)c3ccccc3C(F)(F)F)cn2)c1 [compound 44] | 40%
2 | Cc1cnn(-c2ccc(-c3ccccc3NC(=O)c3cn(C)nc3C(F)F)cn2)c1 [compound 45] | 99%
3 | Cc1cnn(-c2ccc(-c3ccccc3NC(=O)c3ncccc3Cl)cn2)c1 [compound 46] | 21%
4 | O=C(Nc1ccccc1-c1ccc(-n2cc(Br)cn2)nc1)c1ncccc1Cl [compound 47] | 91%
5 | COc1cc(C(F)(F)F)nn1-c1ccc(-c2ccccc2NC(=O)c2ncccc2C(F)(F)F)cn1 [compound 48] | 0%
6 | Cc1cc(C)n(-c2ccc(-c3ccccc3NC(=O)c3ncccc3C(F)(F)F)cn2)n1 [compound 52] | 36%
7 | O=C(Nc1ccccc1-c1ccc(-n2ccc(-c3ccccc3)n2)nc1)c1ncccc1Cl [compound 53] | 0%
8 | O=C(Nc1ccccc1-c1cnc(-n2ccc(C(F)(F)F)n2)nc1)c1nccnc1Cl [compound 55] | 0%
9 | O=C(Nc1ccccc1-c1ccc(-n2ccc(C(F)(F)F)n2)nn1)c1ccccc1C(F)(F)F [compound 57] | 0%
10 | O=C(Nc1ccccc1-c1cnc(-n2cc(Cl)cn2)c(Cl)c1)c1ccccc1C(F)(F)F [compound 60] | 34%
11 | Cn1cc(C(=O)Nc2ccccc2-c2cnc(-n3cc(Cl)cn3)c(Cl)c2)c(C(F)F)n1 [compound 62] | 84%
12 | Cc1cc(-c2ccccc2NC(=O)c2ccccc2C(F)(F)F)cnc1-n1cc(Cl)cn1 [compound 63] | 27%
13 | Cc1cc(-c2ccccc2NC(=O)c2ncccc2C(F)(F)F)cnc1-n1cc(Cl)cn1 [compound 64] | 98%

The compounds below were run on Stagonospora nodorum (also known as Septoria nodorum) (assay: Test B: preventive spray on wheat seedlings, Stagonospora nodorum (wheat glume blotch), visual disease rating). Details: 100 = 100% disease control, 0 = no control, unmarked values.
Type: in vivo
In short: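 Compounds in acetone/water (50/50) with 250 ppm Trem 014 surfactant were sprayed to run-off at 40 ppm (160 g ai/ha) or 10 ppm (40 g ai/ha). Seedlings were inoculated with S. nodorum spores the next day, then held 48 h saturated at 20 °C and 6 days in a growth chamber at 20 °C. Visual rating as % disease control vs untreated.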

Row | SMILES | Test B disease control rating
14 | Cc1cnn(-c2ccc(-c3ccccc3NC(=O)c3ccccc3C(F)(F)F)cn2)c1 [compound 44] | 0%
15 | Cc1cnn(-c2ccc(-c3ccccc3NC(=O)c3cn(C)nc3C(F)F)cn2)c1 [compound 45] | 98%
16 | Cc1cnn(-c2ccc(-c3ccccc3NC(=O)c3ncccc3Cl)cn2)c1 [compound 46] | 0%
17 | O=C(Nc1ccccc1-c1ccc(-n2cc(Br)cn2)nc1)c1ncccc1Cl [compound 47] | 0%
18 | COc1cc(C(F)(F)F)nn1-c1ccc(-c2ccccc2NC(=O)c2ncccc2C(F)(F)F)cn1 [compound 48] | 0%
19 | Cc1cc(C)n(-c2ccc(-c3ccccc3NC(=O)c3ncccc3C(F)(F)F)cn2)n1 [compound 52] | 0%
20 | O=C(Nc1ccccc1-c1ccc(-n2ccc(-c3ccccc3)n2)nc1)c1ncccc1Cl [compound 53] | 0%
21 | O=C(Nc1ccccc1-c1cnc(-n2ccc(C(F)(F)F)n2)nc1)c1nccnc1Cl [compound 55] | 0%
22 | O=C(Nc1ccccc1-c1ccc(-n2ccc(C(F)(F)F)n2)nn1)c1ccccc1C(F)(F)F [compound 57] | 0%
23 | O=C(Nc1ccccc1-c1cnc(-n2cc(Cl)cn2)c(Cl)c1)c1ccccc1C(F)(F)F [compound 60] | 0%
24 | Cn1cc(C(=O)Nc2ccccc2-c2cnc(-n3cc(Cl)cn3)c(Cl)c2)c(C(F)F)n1 [compound 62] | 0%
25 | Cc1cc(-c2ccccc2NC(=O)c2ccccc2C(F)(F)F)cnc1-n1cc(Cl)cn1 [compound 63] | 0%
26 | Cc1cc(-c2ccccc2NC(=O)c2ncccc2C(F)(F)F)cnc1-n1cc(Cl)cn1 [compound 64] | 60%

Each compound was assayed on Septoria tritici (assay: Test C: preventive spray on wheat seedlings, Septoria tritici (wheat leaf blotch), visual disease rating). Details: 100 = 100% disease control, 0 = no control, unmarked values.
Type: in vivo
In short: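 Wheat seedlings sprayed to run-off at 40 ppm or 10 ppm (160 or 40 g ai/ha) in acetone/water with surfactant, inoculated with Septoria tritici spores next day. Held 48 h saturated at 24 °C, then 21 days at 20 °C. Visual rating scored as % disease control relative to controls.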

Row | SMILES | Test C disease control rating
27 | Cc1cnn(-c2ccc(-c3ccccc3NC(=O)c3ccccc3C(F)(F)F)cn2)c1 [compound 44] | 62%
28 | Cc1cnn(-c2ccc(-c3ccccc3NC(=O)c3cn(C)nc3C(F)F)cn2)c1 [compound 45] | 100%
29 | Cc1cnn(-c2ccc(-c3ccccc3NC(=O)c3ncccc3Cl)cn2)c1 [compound 46] | 8%
30 | O=C(Nc1ccccc1-c1ccc(-n2cc(Br)cn2)nc1)c1ncccc1Cl [compound 47] | 82%
31 | COc1cc(C(F)(F)F)nn1-c1ccc(-c2ccccc2NC(=O)c2ncccc2C(F)(F)F)cn1 [compound 48] | 73%
32 | Cc1cc(C)n(-c2ccc(-c3ccccc3NC(=O)c3ncccc3C(F)(F)F)cn2)n1 [compound 52] | 99%
33 | O=C(Nc1ccccc1-c1ccc(-n2ccc(-c3ccccc3)n2)nc1)c1ncccc1Cl [compound 53] | 0%
34 | O=C(Nc1ccccc1-c1cnc(-n2ccc(C(F)(F)F)n2)nc1)c1nccnc1Cl [compound 55] | 100%
35 | O=C(Nc1ccccc1-c1ccc(-n2ccc(C(F)(F)F)n2)nn1)c1ccccc1C(F)(F)F [compound 57] | 32%
36 | O=C(Nc1ccccc1-c1cnc(-n2cc(Cl)cn2)c(Cl)c1)c1ccccc1C(F)(F)F [compound 60] | 100%
37 | Cn1cc(C(=O)Nc2ccccc2-c2cnc(-n3cc(Cl)cn3)c(Cl)c2)c(C(F)F)n1 [compound 62] | 100%
38 | Cc1cc(-c2ccccc2NC(=O)c2ccccc2C(F)(F)F)cnc1-n1cc(Cl)cn1 [compound 63] | 92%
39 | Cc1cc(-c2ccccc2NC(=O)c2ncccc2C(F)(F)F)cnc1-n1cc(Cl)cn1 [compound 64] | 100%

These compounds were tested on Puccinia recondite f. sp. tritici (assay: Test D: preventive spray on wheat seedlings, Puccinia recondite f. sp. tritici (wheat leaf rust), visual disease rating). Details: 100 = 100% disease control, 0 = no control, unmarked values.
Type: in vivo
In short: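 Wheat seedlings sprayed to run-off with 40 ppm (160 g ai/ha) or 10 ppm (40 g ai/ha) suspension in acetone/water with 250 ppm surfactant, inoculated next day with leaf rust spores. After 24 h saturated at 20 °C then 6 days at 20 °C, visual rating of disease control (0–100) relative to controls.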

Row | SMILES | Test D disease control rating
40 | Cc1cnn(-c2ccc(-c3ccccc3NC(=O)c3ccccc3C(F)(F)F)cn2)c1 [compound 44] | 99%
41 | Cc1cnn(-c2ccc(-c3ccccc3NC(=O)c3cn(C)nc3C(F)F)cn2)c1 [compound 45] | 100%
42 | Cc1cnn(-c2ccc(-c3ccccc3NC(=O)c3ncccc3Cl)cn2)c1 [compound 46] | 97%
43 | O=C(Nc1ccccc1-c1ccc(-n2cc(Br)cn2)nc1)c1ncccc1Cl [compound 47] | 100%
44 | COc1cc(C(F)(F)F)nn1-c1ccc(-c2ccccc2NC(=O)c2ncccc2C(F)(F)F)cn1 [compound 48] | 0%
45 | Cc1cc(C)n(-c2ccc(-c3ccccc3NC(=O)c3ncccc3C(F)(F)F)cn2)n1 [compound 52] | 96%
46 | O=C(Nc1ccccc1-c1ccc(-n2ccc(-c3ccccc3)n2)nc1)c1ncccc1Cl [compound 53] | 55%
47 | O=C(Nc1ccccc1-c1cnc(-n2ccc(C(F)(F)F)n2)nc1)c1nccnc1Cl [compound 55] | 91%
48 | O=C(Nc1ccccc1-c1ccc(-n2ccc(C(F)(F)F)n2)nn1)c1ccccc1C(F)(F)F [compound 57] | 100%
49 | O=C(Nc1ccccc1-c1cnc(-n2cc(Cl)cn2)c(Cl)c1)c1ccccc1C(F)(F)F [compound 60] | 100%
50 | Cn1cc(C(=O)Nc2ccccc2-c2cnc(-n3cc(Cl)cn3)c(Cl)c2)c(C(F)F)n1 [compound 62] | 100%
51 | Cc1cc(-c2ccccc2NC(=O)c2ccccc2C(F)(F)F)cnc1-n1cc(Cl)cn1 [compound 63] | 99%
52 | Cc1cc(-c2ccccc2NC(=O)c2ncccc2C(F)(F)F)cnc1-n1cc(Cl)cn1 [compound 64] | 100%

Each compound was assayed on Erysiphe graminis f. sp. tritici (assay: Test E: preventive spray on wheat seedlings, Erysiphe graminis f. sp. tritici (wheat powdery mildew), visual disease rating). Details: 100 = 100% disease control, 0 = no control, unmarked values.
Type: in vivo
In short: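 Wheat seedlings were sprayed to run-off with 40 or 10 ppm suspension (160 or 40 g ai/ha) and dusted with spores the next day. They were then kept 8 days at 20 °C. Disease was rated visually as % control relative to untreated controls (0–100).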

Row | SMILES | Test E disease control rating
53 | Cc1cnn(-c2ccc(-c3ccccc3NC(=O)c3ccccc3C(F)(F)F)cn2)c1 [compound 44] | 0%
54 | Cc1cnn(-c2ccc(-c3ccccc3NC(=O)c3cn(C)nc3C(F)F)cn2)c1 [compound 45] | 99%
55 | Cc1cnn(-c2ccc(-c3ccccc3NC(=O)c3ncccc3Cl)cn2)c1 [compound 46] | 0%
56 | O=C(Nc1ccccc1-c1ccc(-n2cc(Br)cn2)nc1)c1ncccc1Cl [compound 47] | 0%
57 | COc1cc(C(F)(F)F)nn1-c1ccc(-c2ccccc2NC(=O)c2ncccc2C(F)(F)F)cn1 [compound 48] | 56%
58 | Cc1cc(C)n(-c2ccc(-c3ccccc3NC(=O)c3ncccc3C(F)(F)F)cn2)n1 [compound 52] | 50%
59 | O=C(Nc1ccccc1-c1ccc(-n2ccc(-c3ccccc3)n2)nc1)c1ncccc1Cl [compound 53] | 0%
60 | O=C(Nc1ccccc1-c1cnc(-n2ccc(C(F)(F)F)n2)nc1)c1nccnc1Cl [compound 55] | 0%
61 | O=C(Nc1ccccc1-c1ccc(-n2ccc(C(F)(F)F)n2)nn1)c1ccccc1C(F)(F)F [compound 57] | 0%
62 | O=C(Nc1ccccc1-c1cnc(-n2cc(Cl)cn2)c(Cl)c1)c1ccccc1C(F)(F)F [compound 60] | 99%
63 | Cn1cc(C(=O)Nc2ccccc2-c2cnc(-n3cc(Cl)cn3)c(Cl)c2)c(C(F)F)n1 [compound 62] | 98%
64 | Cc1cc(-c2ccccc2NC(=O)c2ccccc2C(F)(F)F)cnc1-n1cc(Cl)cn1 [compound 63] | 72%
65 | Cc1cc(-c2ccccc2NC(=O)c2ncccc2C(F)(F)F)cnc1-n1cc(Cl)cn1 [compound 64] | 96%

— patent publication US9730447B2, “Fungicidal amides” (E I DU PONT DE NEMOURS AND COMPANY, priority 2013, dated 2017)
